Assay results from the Kinase Knowledgebase extract (Sharma et al. 2016).
pIC50: −log10 of the molar value. Each block holds one molecule with its values, some of them ahead of it.

Experiments:
[1] = target: EGFR (human) (UniProt P00533)
[2] = target: EGFR (human) (UniProt P00533); remark: listed apart in the source
[3] = target: EGFR (human) (UniProt P00533); remark: listed apart in the source
[4] = target: MAPK14 (UniProt Q16539); assay: Enzyme Assay
[5] = target: PIK3CD (Human) (UniProt O00329); assay: Enzyme Assay
[6] = target: PIK3CG (human) (UniProt P48736); assay: Enzyme Assay
[7] = target: PIK3CA (human) (UniProt P42336); assay: Inhibition of PIK3CA Kinase Activity
[8] = target: PIK3CG (human) (UniProt P48736); assay: Inhibition of PIK3CG Kinase Activity
[9] = target: PIK3CD (Human) (UniProt O00329); assay: Inhibition of PIK3CD Kinase Activity
[10] = target: PIK3CB (Human) (UniProt P42338); assay: Inhibition of PIK3CB Kinase Activity
[11] = target: EGFR (UniProt P00533)
[12] = target: PIK3CA (human) (UniProt P42336); assay: Enzyme Assay
[13] = target: PIK3CB (Human) (UniProt P42338); assay: Enzyme Assay
[14] = target: PIK3CB (Human) (UniProt P42338); assay: Cell-Based Assay
[15] = target: EGFR (human) (UniProt P00533); details: a431

EGFR (human), sequence (P00533 whole entry, looked up): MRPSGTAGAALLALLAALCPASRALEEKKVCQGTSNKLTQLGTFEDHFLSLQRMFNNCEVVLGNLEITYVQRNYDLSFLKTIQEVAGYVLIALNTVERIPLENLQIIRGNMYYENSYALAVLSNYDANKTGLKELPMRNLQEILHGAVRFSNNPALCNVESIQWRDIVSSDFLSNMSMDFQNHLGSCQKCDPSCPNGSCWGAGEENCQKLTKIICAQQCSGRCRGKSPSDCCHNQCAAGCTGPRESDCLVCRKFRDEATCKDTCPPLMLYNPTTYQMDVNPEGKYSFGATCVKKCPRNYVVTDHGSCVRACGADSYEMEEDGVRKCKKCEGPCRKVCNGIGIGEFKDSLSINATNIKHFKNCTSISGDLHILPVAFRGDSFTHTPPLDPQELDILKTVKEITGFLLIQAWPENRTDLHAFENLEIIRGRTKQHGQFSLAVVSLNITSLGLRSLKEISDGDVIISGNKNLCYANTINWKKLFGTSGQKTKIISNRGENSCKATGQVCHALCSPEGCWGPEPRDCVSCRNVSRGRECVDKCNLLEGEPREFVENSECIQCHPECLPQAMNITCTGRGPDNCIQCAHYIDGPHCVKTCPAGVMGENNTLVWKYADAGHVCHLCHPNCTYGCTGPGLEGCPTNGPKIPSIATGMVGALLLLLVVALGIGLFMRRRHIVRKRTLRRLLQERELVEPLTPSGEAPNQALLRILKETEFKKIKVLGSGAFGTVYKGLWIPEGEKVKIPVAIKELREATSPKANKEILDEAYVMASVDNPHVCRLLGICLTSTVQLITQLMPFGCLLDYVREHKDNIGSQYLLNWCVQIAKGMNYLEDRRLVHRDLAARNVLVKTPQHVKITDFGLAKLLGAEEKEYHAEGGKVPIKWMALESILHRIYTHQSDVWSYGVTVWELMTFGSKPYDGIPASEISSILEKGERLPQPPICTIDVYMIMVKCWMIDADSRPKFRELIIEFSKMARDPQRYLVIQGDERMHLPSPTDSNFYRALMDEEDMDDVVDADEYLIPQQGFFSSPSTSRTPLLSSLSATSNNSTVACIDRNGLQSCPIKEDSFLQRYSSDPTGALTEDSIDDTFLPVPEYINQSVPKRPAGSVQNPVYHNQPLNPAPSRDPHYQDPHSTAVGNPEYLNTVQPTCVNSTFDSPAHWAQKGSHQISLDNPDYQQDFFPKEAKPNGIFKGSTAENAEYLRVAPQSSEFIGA
PIK3CG (human), sequence (P48736 whole entry, looked up): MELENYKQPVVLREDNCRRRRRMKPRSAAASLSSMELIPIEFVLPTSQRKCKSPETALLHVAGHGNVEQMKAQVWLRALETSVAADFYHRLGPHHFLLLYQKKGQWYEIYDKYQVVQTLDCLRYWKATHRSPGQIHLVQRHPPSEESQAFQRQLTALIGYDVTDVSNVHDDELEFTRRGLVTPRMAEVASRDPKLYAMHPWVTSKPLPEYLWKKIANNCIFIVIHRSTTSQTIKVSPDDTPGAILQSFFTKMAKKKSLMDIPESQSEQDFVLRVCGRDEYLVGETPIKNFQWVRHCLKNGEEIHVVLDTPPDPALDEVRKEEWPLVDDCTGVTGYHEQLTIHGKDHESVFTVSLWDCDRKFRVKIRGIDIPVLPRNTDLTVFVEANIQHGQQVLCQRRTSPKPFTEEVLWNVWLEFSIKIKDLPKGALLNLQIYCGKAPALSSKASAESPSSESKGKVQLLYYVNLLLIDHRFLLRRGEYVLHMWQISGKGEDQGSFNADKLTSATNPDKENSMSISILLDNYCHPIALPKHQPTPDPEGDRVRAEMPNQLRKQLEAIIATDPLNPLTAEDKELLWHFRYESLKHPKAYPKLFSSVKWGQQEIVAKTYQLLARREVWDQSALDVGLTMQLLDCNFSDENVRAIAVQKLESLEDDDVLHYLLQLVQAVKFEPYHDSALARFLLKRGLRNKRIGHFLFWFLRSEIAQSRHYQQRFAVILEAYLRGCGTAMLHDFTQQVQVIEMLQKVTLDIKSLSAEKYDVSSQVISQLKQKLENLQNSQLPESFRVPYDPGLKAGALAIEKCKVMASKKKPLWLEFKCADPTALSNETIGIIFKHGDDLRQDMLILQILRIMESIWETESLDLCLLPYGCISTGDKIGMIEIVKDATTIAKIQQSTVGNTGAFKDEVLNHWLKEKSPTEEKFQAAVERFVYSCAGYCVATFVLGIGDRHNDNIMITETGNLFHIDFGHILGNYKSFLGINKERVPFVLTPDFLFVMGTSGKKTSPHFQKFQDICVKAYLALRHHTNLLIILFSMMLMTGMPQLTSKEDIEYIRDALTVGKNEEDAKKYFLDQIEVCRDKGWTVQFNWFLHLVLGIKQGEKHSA
PIK3CD (Human), sequence (O00329 whole entry, looked up): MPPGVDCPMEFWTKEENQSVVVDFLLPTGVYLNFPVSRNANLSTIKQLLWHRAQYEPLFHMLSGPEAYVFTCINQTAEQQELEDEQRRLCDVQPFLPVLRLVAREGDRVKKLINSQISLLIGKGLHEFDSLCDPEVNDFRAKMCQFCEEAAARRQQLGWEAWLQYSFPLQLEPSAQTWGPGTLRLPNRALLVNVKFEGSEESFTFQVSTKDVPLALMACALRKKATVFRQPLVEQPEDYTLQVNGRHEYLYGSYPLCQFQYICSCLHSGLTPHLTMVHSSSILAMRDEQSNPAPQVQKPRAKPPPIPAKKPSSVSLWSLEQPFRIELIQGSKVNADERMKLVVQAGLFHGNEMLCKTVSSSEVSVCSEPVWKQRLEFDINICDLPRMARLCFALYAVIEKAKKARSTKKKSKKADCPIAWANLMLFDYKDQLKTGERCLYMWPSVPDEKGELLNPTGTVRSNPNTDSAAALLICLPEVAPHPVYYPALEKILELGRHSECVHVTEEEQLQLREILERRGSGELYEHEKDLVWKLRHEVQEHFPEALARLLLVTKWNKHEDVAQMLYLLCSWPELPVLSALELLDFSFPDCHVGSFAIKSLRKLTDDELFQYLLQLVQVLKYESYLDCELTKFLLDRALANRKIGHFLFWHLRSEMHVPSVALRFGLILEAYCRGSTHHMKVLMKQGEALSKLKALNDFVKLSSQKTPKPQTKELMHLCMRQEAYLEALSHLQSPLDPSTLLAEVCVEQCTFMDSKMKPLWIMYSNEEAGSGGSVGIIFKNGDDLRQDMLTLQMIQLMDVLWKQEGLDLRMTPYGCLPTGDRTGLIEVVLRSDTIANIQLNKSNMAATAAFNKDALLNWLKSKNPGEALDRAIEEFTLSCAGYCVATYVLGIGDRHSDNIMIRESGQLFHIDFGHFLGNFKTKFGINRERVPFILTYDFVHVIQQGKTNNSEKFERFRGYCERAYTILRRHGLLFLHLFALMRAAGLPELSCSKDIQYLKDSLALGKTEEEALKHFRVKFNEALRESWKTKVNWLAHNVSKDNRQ
PIK3CB (Human), sequence (P42338 whole entry, looked up): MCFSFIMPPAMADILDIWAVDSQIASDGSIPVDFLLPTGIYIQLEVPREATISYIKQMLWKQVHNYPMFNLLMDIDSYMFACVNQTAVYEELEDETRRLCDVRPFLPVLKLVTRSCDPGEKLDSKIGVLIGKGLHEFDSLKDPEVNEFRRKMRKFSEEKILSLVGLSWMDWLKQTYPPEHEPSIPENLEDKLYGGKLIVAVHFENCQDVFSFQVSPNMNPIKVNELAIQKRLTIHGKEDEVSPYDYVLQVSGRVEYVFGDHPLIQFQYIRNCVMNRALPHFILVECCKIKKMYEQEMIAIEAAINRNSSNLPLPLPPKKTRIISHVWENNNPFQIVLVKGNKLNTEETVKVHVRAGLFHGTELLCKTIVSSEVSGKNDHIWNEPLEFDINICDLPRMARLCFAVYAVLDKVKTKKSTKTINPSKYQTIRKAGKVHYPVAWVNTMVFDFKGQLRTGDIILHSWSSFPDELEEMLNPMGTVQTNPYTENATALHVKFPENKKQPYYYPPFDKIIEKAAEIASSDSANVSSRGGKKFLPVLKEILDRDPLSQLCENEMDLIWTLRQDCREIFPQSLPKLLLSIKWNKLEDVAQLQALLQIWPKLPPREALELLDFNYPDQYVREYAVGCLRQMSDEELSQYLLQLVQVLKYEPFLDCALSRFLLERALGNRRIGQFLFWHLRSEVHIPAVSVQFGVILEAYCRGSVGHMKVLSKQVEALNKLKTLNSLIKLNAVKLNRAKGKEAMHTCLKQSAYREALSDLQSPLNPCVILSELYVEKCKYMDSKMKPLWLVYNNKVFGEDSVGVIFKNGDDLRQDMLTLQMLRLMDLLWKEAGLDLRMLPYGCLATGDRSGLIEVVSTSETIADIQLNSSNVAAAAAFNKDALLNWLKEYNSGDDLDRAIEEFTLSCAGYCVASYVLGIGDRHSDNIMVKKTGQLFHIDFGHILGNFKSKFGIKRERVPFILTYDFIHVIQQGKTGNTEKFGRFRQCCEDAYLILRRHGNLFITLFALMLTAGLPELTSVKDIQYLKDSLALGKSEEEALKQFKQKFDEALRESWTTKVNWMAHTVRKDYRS
MAPK14, sequence (Q16539 whole entry, looked up): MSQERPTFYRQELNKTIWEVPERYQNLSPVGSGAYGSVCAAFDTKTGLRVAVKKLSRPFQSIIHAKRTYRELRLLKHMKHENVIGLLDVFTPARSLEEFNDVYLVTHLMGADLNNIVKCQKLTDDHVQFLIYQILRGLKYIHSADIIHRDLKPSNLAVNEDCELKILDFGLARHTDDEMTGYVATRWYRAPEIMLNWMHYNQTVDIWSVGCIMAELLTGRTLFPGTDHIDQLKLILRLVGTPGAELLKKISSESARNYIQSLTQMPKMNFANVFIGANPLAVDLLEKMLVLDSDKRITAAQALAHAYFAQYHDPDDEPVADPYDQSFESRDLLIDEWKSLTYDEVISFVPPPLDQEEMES

Compound: CC(C)(C)OC(=O)NCCCNC(=O)c1sc2ncnc3c2c1NC(=O)N3c1ccc2c(ccn2Cc2cccc(F)c2)c1
pIC50 [3]: 6.46

Compound: COc1cc(-c2nc(N3CCCC3)sc2-c2ccnc(Nc3ccc(OCCN4CCCC4)c(F)c3)n2)ccc1Cl
pIC50 [1]: 6.00 to 7.00

Compound: Fc1ccc(-c2ncn(CCCN3CCOCC3)c2-c2ccccn2)cc1
pIC50 [4]: 4.19

Compound: O=C(Nc1ccc(CNC[C@@H]2CCCO2)cc1)c1sc2ncnc3c2c1NC(=O)N3c1ccc(F)c(Cl)c1
pIC50 [3]: 7.36

Compound: CNC(=O)[C@@H]1CN(Cc2cccc3ncnc(Nc4cccc(OC)c4)c23)CC[C@H]1N
pIC50 [11]: 5.30 to 9.00

Compound: C[C@@H](Oc1ccccc1)c1cc(C(=O)N(C)CCO)cn2c(=O)cc(N3CCOCC3)nc12
pIC50 [12]: 5.46
pIC50 [13]: 7.00

Compound: C[C@H](Nc1ncnc(N)c1C#N)c1cc2ccc(F)cc2nc1-c1ccccc1S(C)(=O)=O
pIC50 ([14]; mda-468): < 5.00

Compound: C[C@H](Nc1ncnc(N)c1C#N)c1cc2ccc(F)cc2nc1-c1cccc(F)c1
pIC50 ([14]; mda-468): 5.42

Compound: Oc1cccc(Nc2ncnc3sc4c(c23)CCCC4)c1
pIC50 [2]: 8.10

Compound: C=CCN(/C=C1/C(=O)O[C@H](COC)[C@@]2(C)C1=C(O)C(=O)C1=C2[C@H](OC(C)=O)C[C@]2(C)C(O)CC[C@H]12)CC=C (stereo not given in full)
pIC50 [7]: 7.85
pIC50 [8]: 6.83
pIC50 [9]: 6.88
pIC50 [10]: 7.24

Compound: C[C@H](Nc1ncnc(N)c1C#N)c1nc2cccc(Cl)c2nc1-c1ccccc1S(C)(=O)=O
pIC50 ([14]; mda-468): < 5.00
pIC50 ([14]; mda-mb-468): < 5.00

Compound: Fc1cc(Nc2nccc(-c3sc(N4CCCC4)nc3-c3cccc(Cl)c3)n2)ccc1OCCN1CCCC1
pIC50 [1]: 6.00 to 7.00

Now from value to molecule:

pIC50 [1]: > 7.00
Compound: CCNc1nc(-c2cccc(OC)c2)c(-c2ccnc(Nc3ccc(OCCN4CCCC4)c(F)c3)n2)s1

pIC50 [2]: 8.59
Compound: O=[N+]([O-])c1cccc(Nc2ncnc3sc4c(c23)CCCC4)c1

pIC50 [1]: > 7.00
Compound: CCNc1nc(-c2cccc(O)c2)c(-c2ccnc(Nc3ccc(OCCN4CCCC4)c(Cl)c3)n2)s1

pIC50 [3]: 6.96
Compound: O=C(Nc1ccc(CN2CCCCC2)cc1)c1sc2ncnc3c2c1NC(=O)N3c1ccc(Cc2ccccc2)cc1

pIC50 [4]: 6.72
Compound: Cc1cccc(C(=O)c2ccc(Nc3ccc(N)cc3)cc2Cl)c1

pIC50 [5]: 7.47
pIC50 [6]: 6.95
pIC50 [7]: 7.25
pIC50 [8]: 6.93
pIC50 [9]: 7.46
pIC50 [10]: 6.35
Compound: Cc1nc2cnc3ccc(C#Cc4cccnc4)cc3c2n1-c1ccc(C(C)(C)C#N)cc1

pIC50 [7]: 7.41
pIC50 [8]: 6.70
pIC50 [9]: 6.91
pIC50 [10]: 7.06
Compound: C=CCN(/C=C1/C(=O)O[C@H](COC)[C@@]2(C)C1=C(O)C(=O)C1=C2[C@H](OC(C)=O)C[C@]2(C)C(=O)CC[C@H]12)CC=C

pIC50 ([14]; mda-468): 5.22
Compound: C[C@H](Nc1ncnc(N)c1C#N)c1cc2cccc(F)c2nc1-c1ccccc1S(C)(=O)=O

pIC50 [7]: 7.23
pIC50 [8]: 7.51
pIC50 [9]: 7.74
pIC50 [10]: 6.00
Compound: CC1(C)CNC(=O)c2sc(N3CCOC[C@@H]3Cc3c[nH]c4ncccc34)nc2C1

pIC50 [2]: 7.56
Compound: Oc1ccc(Nc2ncnc3sc4c(c23)CCCC4)cc1

pIC50 [3]: 5.77
Compound: O=C(O)c1sc2ncnc3c2c1NC(=O)N3c1ccc(F)c(Cl)c1

pIC50 [2]: 7.98
Compound: c1ccc(Nc2ncnc3sc4c(c23)CCCC4)cc1

pIC50 [7]: > 8.04
pIC50 [10]: 7.47
Compound: Cc1nc(N)nc2c1cc(-c1ccc(N)nc1)c(=O)n2[C@@H]1CCOC1

pIC50 [3]: 6.77
Compound: CC(C)(C)OC(=O)N1CCC(Cc2ccc(NC(=O)c3sc4ncnc5c4c3NC(=O)N5c3ccc4c(ccn4Cc4cccc(F)c4)c3)cc2)CC1

pIC50 [15]: 7.49
Compound: C=CC(=O)N1CCC[C@H]1C(=O)Nc1ccc2ncnc(Nc3ccc(OCc4ccccn4)c(Cl)c3)c2c1

pIC50 [11]: 5.30 to 9.00
Compound: C#Cc1cccc(Nc2ncnc3cccc(CN4CC[C@@H](N)[C@H](O)C4)c23)c1
